Laboratory results: PMC9266550, “The 2-hydroxy-3-(4-aryl-1-piperazinyl)propyl Phthalimide Derivatives as Prodrugs—Spectroscopic and Theoretical Binding Studies with Plasma Proteins” (International Journal of Molecular Sciences, 2022)

Legend:
[1] = biological target: T1, bovine serum albumin (BSA) (Bos taurus, UniProt P02769); assay: intrinsic fluorescence quenching, excitation […] nm; assay type: binding; details: 297 K, phosphate buffer pH 7.5, no site marker; double-log
T1 construct: gene ALB; native plasma protein, commercial (Sigma-Aldrich), mature form

[2] = biological target: T2, bovine α1-acid glycoprotein (AAG), orosomucoid (Bos taurus, UniProt Q3SZR3); assay: intrinsic fluorescence quenching, excitation […] nm; assay type: binding; details: 297 K, phosphate buffer pH 7.5; double-log
T2 construct: gene ORM1; native plasma glycoprotein, commercial (Sigma-Aldrich), mature form
T2 sequence (Q3SZR3 19-202): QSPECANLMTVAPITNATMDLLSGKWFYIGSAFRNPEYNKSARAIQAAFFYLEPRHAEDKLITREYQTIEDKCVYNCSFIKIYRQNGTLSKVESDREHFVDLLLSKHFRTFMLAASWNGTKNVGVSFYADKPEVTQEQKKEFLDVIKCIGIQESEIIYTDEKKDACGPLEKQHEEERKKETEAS

T1 sequence (P02769 25-607): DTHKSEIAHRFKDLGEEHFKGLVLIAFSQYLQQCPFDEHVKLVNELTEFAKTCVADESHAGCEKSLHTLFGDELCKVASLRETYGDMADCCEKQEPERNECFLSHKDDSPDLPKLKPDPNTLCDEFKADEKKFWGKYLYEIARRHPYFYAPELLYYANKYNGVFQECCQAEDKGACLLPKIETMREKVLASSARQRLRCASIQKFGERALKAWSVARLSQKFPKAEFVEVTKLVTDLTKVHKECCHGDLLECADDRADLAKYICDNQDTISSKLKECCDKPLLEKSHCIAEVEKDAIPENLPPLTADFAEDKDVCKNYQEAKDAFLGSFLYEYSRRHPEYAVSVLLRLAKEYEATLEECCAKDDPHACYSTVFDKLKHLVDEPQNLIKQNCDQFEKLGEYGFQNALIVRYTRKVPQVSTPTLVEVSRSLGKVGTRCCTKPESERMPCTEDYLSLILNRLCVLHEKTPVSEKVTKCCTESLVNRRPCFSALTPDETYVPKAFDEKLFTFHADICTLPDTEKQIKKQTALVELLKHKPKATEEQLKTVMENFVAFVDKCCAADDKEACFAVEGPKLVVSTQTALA

Row | Binding / Kb × 10^5 [dm^3.mol^-1] [1] | Binding / Kb × 10^3 [dm^3.mol^-1] [2] | SMILES
1 | 0.55 × 10^5 dm^3·mol^−1 | 1.21 × 10^3 dm^3·mol^−1 | COc1ccccc1N1CCN(CC(O)CN2C(=O)c3ccccc3C2=O)CC1 (centres unmarked) [F2]
2 | 1.75 × 10^5 dm^3·mol^−1 | 4.17 × 10^3 dm^3·mol^−1 | O=C1c2ccccc2C(=O)N1CC(O)CN1CCN(c2cccc(C(F)(F)F)c2)CC1 (centres unmarked) [F3]
3 | 2.13 × 10^5 dm^3·mol^−1 | 2.12 × 10^3 dm^3·mol^−1 | O=C1c2ccccc2C(=O)N1CC(O)CN1CCN(c2ccccc2)CC1 (centres unmarked) [F1]
4 | 1.99 × 10^5 dm^3·mol^−1 | 2.75 × 10^3 dm^3·mol^−1 | O=C1c2ccccc2C(=O)N1CC(O)CN1CCN(C(c2ccccc2)c2ccccc2)CC1 (centres unmarked) [F4]
